Target: T1, hROMK (hKir1.1) (Homo sapiens, UniProt P48048)
T1 construct: expressed in transfected cells
T1 sequence (P48048 1-391): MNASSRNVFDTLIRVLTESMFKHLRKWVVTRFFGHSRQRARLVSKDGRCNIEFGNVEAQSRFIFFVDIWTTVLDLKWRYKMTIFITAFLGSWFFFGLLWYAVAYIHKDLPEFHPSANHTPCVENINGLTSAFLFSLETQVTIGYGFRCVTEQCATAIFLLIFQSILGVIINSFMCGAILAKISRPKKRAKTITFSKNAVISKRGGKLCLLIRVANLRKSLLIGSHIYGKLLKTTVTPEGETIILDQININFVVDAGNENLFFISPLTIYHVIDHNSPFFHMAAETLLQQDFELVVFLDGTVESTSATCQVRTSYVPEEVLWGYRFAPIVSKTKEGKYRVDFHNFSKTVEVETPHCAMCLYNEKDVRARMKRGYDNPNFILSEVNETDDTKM
Experiment: Thallium Flux Assay
Type: cell-based
Details: HEK293 cells stably expressing hROMK (hKir1.1)
Procedure: Cell Culture Conditions—HEK293 cells stably expressing hROMK (hKir1.1) were grown at 37° C. in a 10% CO2 humidified incubator in complete growth media: Dulbecco's Modified Eagle Medium supplemented with non-essential amino acids, Penicillin/Streptomycin/Glutamine, G418 and FBS. At >80% confluency, aspirate the media from the flask and rinse with 10 mL Calcium/Magnesium-free PBS. Add 5 mL of 1× trypsin (prepared in Ca/Mg Free PBS) to T-225 flask and return flask to 37° C./CO2 incubator for 2-3 minutes. To dislodge the cell, gently bang the side of the flask with your hand. Triturate the cells completely and then transfer the cells to 25 mL complete media. Centrifuge at 1,500 rpm for 6 min followed by resuspension in complete growth media and determine cell concentration. For typical re-seeding, 4E6 cells/T-225 flask will attain >80% confluency in 4 days. Under ideal growth conditions and appropriate tissue culture practices, this cell line is stable for 40-45 passages.
FluxOR Kit Components (Invitrogen F10017)
• FluxOR™ Reagent (Component A) • FluxOR™ Assay Buffer (Component B)—10× Concentrate • PowerLoad™ Concentrate (Component C)—100× Concentrate • Probenecid (Component D)—Lyophilized sample is kept at −20° C. Water soluble, 100× after solubilization in 1 mL water. Store at 4° C. • FluxOR™ Chloride-free Buffer (Component E)—5× Concentrate • Potassium sulfate (K2SO4) Concentrate (Component F)—125 mM in water. Store at 4° C. • Thallium sulfate (Tl2SO4) Concentrate (Component G)—50 mM in water. Store at 4° C. • DMSO (dimethyl sulfoxide, Component H)—1 mL (100%) Reagent Preparation: FluxOR Working Solutions • 1000× FluxOR™ Reagent: Reconstitute a vial of component A in 100 μl DMSO; Mix well; Store 10 μl aliquots at −20° C. • 1× FluxOR™ Assay Buffer: Dilute Component B 10-fold with water; Adjust pH to 7.4 with Hepes/NaOH; Filter and store at 4° C. • Probenecid/Assay Buffer: 100 mL of 1× FluxOR™ Assay Buffer; 1 mL of reconstituted component D; Store at 4° C. • Loading Buffer (per microplate): 10 μl 1000× FluxOR™ Reagent; 100 μl component C; 10 mL Probenecid/Assay Buffer • Compound Buffer (per microplate): 20 mL Probenecid/Assay Buffer; 0.3 mM ouabain (10 mM ouabain in water can be stored in amber bottle/aluminum foil at room temperature); Test compound • 1× FluxOR™ Chloride-Free Buffer: Prepare 1× working solution in water. Can be stored at room temperature • Stimulant Buffer (prepared at 5× final concentration in 1× FluxOR™Chloride-Free Buffer): 7.5 mM Thallium sulfate and 0.75 mM Potassium sulfate (to give a final assay concentration of 3 mM Thallium/0.3 mM Potassium). Store at 4° C. when not in use. If kept sterile, this solution is good for months.
Assay Protocol—The ROMK channel functional thallium flux assay is performed in 384 wells, using the FLIPR-Tetra instrument. HEK-hKir1.1 cells are seeded in Poly-D-Lysine microplates and kept in a 37° C.-10% CO2 incubator overnight. On the day of the experiment, the growth media is replaced with the FluxOR™ reagent loading buffer and incubated, protected from light, at ambient temperature (23-25° C.) for 90 min. The loading buffer is replaced with assay buffer± test compound followed by 30 min incubation at ambient temperature, where the Thallium/Potassium stimulant is added to the microplate.
• 1. Seed HEK-hKir1.1 cells (50 μl at 20,000 cells/well) in 384-well PDL coated Microplates • 2. Allow cells to adhere overnight in humidified 37° C./10% CO2 incubator • 3. Completely remove cell growth media from microplate and replace with 25 μl loading buffer • 4. Incubate Microplate at room temperature, protected form light, for 90 min • 5. Remove loading buffer and replace with 25 μl 1× Assay Buffer±test compound. • 6. Incubate microplate at room temperature, protected from light, for 30 min • 7. At FLIPR-Tetra 384: Add stimulant (Thallium/Potassium) solution to microplate and monitor fluorescence. Excitation=400 nm, Emission=460 & 580 nm. Collect data for ˜10 min. […]

IC50 [nM] | Structure (SMILES)
350 | Cc1c(C(O)CN2CCC(NC(=O)c3ccc4c(c3)COC4=O)CC2)ccc(F)c1C#N (stereo not shown) [Example 13, N-(1-(2-(3-Cyano-4-fluoro-2-methylphenyl)-2-hydroxyethyl)piperidin-4-yl)-1-oxo-1,3-dihydroisobenzofuran-5-carboxamide]
70 | COc1cc(C(=O)NC2CCN(CC(O)c3ccc(F)c(C#N)c3C)CC2)ccc1C#N (stereo not shown) [Example 14, 4-Cyano-N-(1-(2-(3-cyano-4-fluoro-2-methylphenyl)-2-hydroxyethyl)piperidin-4-yl)-3-methoxybenzamide]
450 | Cc1c(CCN2CCC(NC(=O)c3ccnc(-n4cnnn4)c3)CC2)ccc2c1COC2=O [Example 15, N-(1-(2-(4-Methyl-1-oxo-1,3-dihydroisobenzofuran-5-yl)ethyl)piperidin-4-yl)-2-(1H-tetrazol-1-yl)isonicotinamide]
50 | Cc1c(C(O)CN2CCC(NC(=O)c3ccc(C#N)c(F)c3)CC2)ccc2c1COC2=O (stereo not shown) [Example 16, 4-Cyano-3-fluoro-N-(1-(2-hydroxy-2-(4-methyl-1-oxo-1,3-dihydroisobenzofuran-5-yl)ethyl)piperidin-4-yl)benzamide]
30 | COc1cc(F)c(C#N)cc1C(=O)NC1CCN(CCc2ccc3c(c2C)COC3=O)CC1 [Example 17, 5-Cyano-4-fluoro-2-methoxy-N-(1-(2-(4-methyl-1-oxo-1,3-dihydroisobenzofuran-5-yl)ethyl)piperidin-4-yl)benzamide]
950 | Cc1cc(F)c(C(=O)NC2CCN(CCc3ccc4c(c3C)COC4=O)CC2)cc1C#N [Example 18, 5-Cyano-2-fluoro-4-methyl-N-(1-(2-(4-methyl-1-oxo-1,3-dihydroisobenzofuran-5-yl)ethyl)piperidin-4-yl)benzamide]
50 | Cc1cc(C(=O)NC2CCN(CCc3ccc4c(c3C)COC4=O)CC2)ncc1C#N [Example 19, 5-Cyano-4-methyl-N-(1-(2-(4-methyl-1-oxo-1,3-dihydroisobenzofuran-5-yl)ethyl)piperidin-4-yl)picolinamide]
70 | COc1cc(F)c(C#N)cc1C(=O)NC1CCN(C[C@H](O)c2ccc3c(c2C)COC3=O)CC1 [Example 20, (R)-5-Cyano-4-fluoro-N-(1-(2-hydroxy-2-(4-methyl-1-oxo-1,3-dihydroisobenzofuran-5-yl)ethyl)piperidin-4-yl)-2-methoxybenzamide]
150 | COc1cc(F)c(C#N)cc1C(=O)NC1CCN(C[C@@H](O)c2ccc3c(c2C)COC3=O)CC1 [Example 21, (S)-5-Cyano-4-fluoro-N-(1-(2-hydroxy-2-(4-methyl-1-oxo-1,3-dihydroisobenzofuran-5-yl)ethyl)piperidin-4-yl)-2-methoxybenzamide]
20 | Cc1cc(C(=O)NC2CCN(C[C@H](O)c3ccc4c(c3C)COC4=O)CC2)ncc1C#N [Example 22, (R)-5-cyano-N-(1-(2-hydroxy-2-(4-methyl-1-oxo-1,3-dihydroisobenzofuran-5-yl)ethyl)piperidin-4-yl)-4-methylpicolinamide]
720 | Cc1cc(C(=O)NC2CCN(C[C@@H](O)c3ccc4c(c3C)COC4=O)CC2)ncc1C#N [Example 23, (S)-5-cyano-N-(1-(2-hydroxy-2-(4-methyl-1-oxo-1,3-dihydroisobenzofuran-5-yl)ethyl)piperidin-4-yl)-4-methylpicolinamide]
150 | Cc1c([C@@H](O)CN2CCC(NC(=O)c3ccc(C#N)nc3)CC2)ccc2c1COC2=O [Example 24, (R)-6-Cyano-N-(1-(2-hydroxy-2-(4-methyl-1-oxo-1,3-dihydroisobenzofuran-5-yl)ethyl)piperidin-4-yl)nicotinamide]
30 | Cc1cc(C(=O)NC2CCN(C[C@H](O)c3ccc4c(c3C)COC4=O)CC2)ccc1C#N [Example 25, (R)-4-Cyano-N-(1-(2-hydroxy-2-(4-methyl-1-oxo-1,3-dihydroisobenzofuran-5-yl)ethyl)piperidin-4-yl)-3-methylbenzamide]
70 | CCOc1cc(C#N)ccc1C(=O)NC1CCN(C[C@H](O)c2ccc3c(c2C)COC3=O)CC1 [Example 26, (R)-4-Cyano-2-ethoxy-N-(1-(2-hydroxy-2-(4-methyl-1-oxo-1,3-dihydroisobenzofuran-5-yl)ethyl)piperidin-4-yl)benzamide]
30 | Cc1c([C@@H](O)CN2CCC(NC(=O)c3ccc(C#N)cc3)CC2)ccc2c1COC2=O [Example 27, (R)-4-Cyano-N-(1-(2-hydroxy-2-(4-methyl-1-oxo-1,3-dihydroisobenzofuran-5-yl)ethyl)piperidin-4-yl)benzamide]
30 | Cc1c([C@@H](O)CN2CCC(NC(=O)c3ccc(C#N)cn3)CC2)ccc2c1COC2=O [Example 28, (R)-5-Cyano-N-(1-(2-hydroxy-2-(4-methyl-1-oxo-1,3-dihydroisobenzofuran-5-yl)ethyl)piperidin-4-yl)picolinamide]
120 | Cc1c(CCN2CCC(NC(=O)c3cccc(-n4cnnn4)c3)CC2)ccc2c1COC2=O [Example 30, N-(1-(2-(4-Methyl-1-oxo-1,3-dihydroisobenzofuran-5-yl)ethyl)piperidin-4-yl)-3-(1H-tetrazol-1-yl)benzamide]
100 | Cc1c(CCN2CCC(NC(=O)c3ccc(-n4cccn4)cc3)CC2)ccc2c1COC2=O [Example 31, N-(1-(2-(4-Methyl-1-oxo-1,3-dihydroisobenzofuran-5-yl)ethyl)piperidin-4-yl)-4-(1H-pyrazol-1-yl)benzamide]
480 | Cc1c(CCN2CCC(NC(=O)c3cc(C#N)cs3)CC2)ccc2c1COC2=O [Example 32, 4-Cyano-N-(1-(2-(4-methyl-1-oxo-1,3-dihydroisobenzofuran-5-yl)ethyl)piperidin-4-yl)thiophene-2-carboxamide]
60 | Cc1c([C@@H](O)CN2CC3C(C2)C3NC(=O)c2ccc(C#N)cn2)ccc2c1COC2=O (stereo partly drawn) [Example 33, 5-Cyano-N-(3-((R)-2-hydroxy-2-(4-methyl-1-oxo-1,3-dihydroisobenzofuran-5-yl)ethyl)-3-azabicyclo[3.1.0]hexan-6-yl)picolinamide]
230 | Cc1c([C@@H](O)CN2CCC(NC(=O)c3ccc(-n4cnnn4)cc3)CC2)ccc2c1COC2=O [Example 34, (R)-N-(1-(2-Hydroxy-2-(4-methyl-1-oxo-1,3-dihydroisobenzofuran-5-yl)ethyl)piperidin-4-yl)-4-(1H-tetrazol-1-yl)benzamide]
60 | Cc1c([C@@H](O)CN2CCC(NC(=O)c3ccc(-c4ccon4)cc3)CC2)ccc2c1COC2=O [Example 35, (R)-N-(1-(2-Hydroxy-2-(4-methyl-1-oxo-1,3-dihydroisobenzofuran-5-yl)ethyl)piperidin-4-yl)-4-(isoxazol-3-yl)benzamide]

— US9777002B2, “Inhibitors of the renal outer medullary potassium channel” (Merck Sharp & Dohme Corp., priority 2012, dated 2017)
